The values that follow come from patent US20130153815A1, “POLYMER COMPRISING A DYE, NANOPARTICLE COMPRISING THE POLYMER, AND METHODS OF PREPARING THE SAME” (Agency for Science, Technology and Research, priority 2011, published 2013).

The structures appear in SMILES notation.

The nature of data set [1]: UV absorption in methanol. In kind it is physicochemical. The following applies: methanol solution, 0.1 mM, 25° C. Here is the method:
(§1) The absorbance bands of these spectra still remain at 820 nm after chemical modification and hybridization with polymers. The colloidal stability and aggregation were tested by using UV absorbance. Dye-Pol 1 and Dye-Pol 2 were mixed with phosphate buffered saline (PBS) buffer. The absorbance bands remain the same after 3 days (FIG. 7). Similar phenomenon happened to MNP 1 and MNP 2 (FIG. 8). […] FIG. 9 and FIG. 10 show the emission spectra in the near-infrared region (800-1500 nm), excited at 785 nm. The emission spectrum of IR820dye-NH2 is 1002 nm, slightly blue-shifted from 1076 nm (IR-820). Dye-Pol 1 and Dye-Pol 2 show the emission highest peak at 956 nm while the emission of MNP 1 and MNP 2 are 864 and 866 nm, respectively. Dye-Pol 1 and Dye-Pol 2 absorb at 820 nm and emit at 956 nm. They display a large Stokes shift (136 nm).

Data set [2] can be described thus: NIR photoluminescence emission spectra excited with a 785 nm laser diode. In kind it is physicochemical. The following applies: near-infrared region (800-1500 nm), excited at 785 nm. Here is the method: as §1

The molecule `CC1(C)C(=CC=C2CCCC(C=CC3=[N+](CCCCS(=O)(=O)[O-])c4ccc5ccccc5c4C3(C)C)=C2Cl)N(CCCCS(=O)(=O)[O-])c2ccc3ccccc3c21.[Na+]` [IR-820] came in with an absorbance band in data set [1] of 820 nm. In data set [2], this molecule had an emission highest peak of 1076 nm.
